Test results as given in patent publication US9901579B2, “Compositions comprising phosphodiesterase inhibitors for use in the treatment of a solid tumor in a human patient” (Sartar Therapeutics Ltd, priority 2013, dated 2018).
Counter-ions that a name gives are not always drawn.

Legend:
Format in all cases: cell-based, human
[1] = test system: GIST cell cultures (GIST48 and GIST882); test: xCELLigence System / RTCA DP proliferation analysis; settings: 10 μmol/L or higher concentration
Excerpt: Four different PDE3-inhibitors were used to block the activity of PDE3 enzymes and two kinase-inhibitors to block the activity of KIT and PDGFRA. Cilostazol, milrinone and amrinone were purchased from Sigma (St Louis, Mo., USA) and anagrelide hydrochloride was purchased from Tocris Bioscience (Bristol, UK). […] All other inhibitors were reconstituted in DMSO. In a preliminary analysis, multiple drug concentrations (from 0 to 100 μmol/L) were used to identify effective PDE3 inhibitor doses in the GIST cell lines. Effects on proliferation were analysed using xCELLigence System and the RTCA DP instrument (Acea Biosciences, San Diego, Calif., USA). […] Cell progression to apoptosis after anagrelide hydrochloride treatment was analysed in eight duplicate wells with a Click-iT TUNEL Alexa Fluor 488 Imaging Assay (Invitrogen, Carlsbad, Calif., USA) according to the manufacturer's instructions. Progression to apoptosis was measured after 48 hours and after 96 hours of drug treatments. Cell proliferation was examined by the MTT assay (Roche Diagnostics, Indianapolis, Ind., USA) and the xCELLigence System using the RTCA DP instrument (Acea Biosciences). […] At the end of the incubation, cell proliferation was analyzed from eight duplicate wells by adding 10 μL of the MTT reagent into each well and incubating at 37° C. for four hour. The plates were read with a Multiscan EX Microplate photometer (Thermo Scientific, Rockford, Ill., USA) at the wavelength of 540 nm. For the xCELLigence proliferation assay GIST48 and GIST882 cells were plated at a density of 2.5×10^4 cells/well. Before plating GIST882 cells, the wells were thin coated with Collagen I Rat Tail (Invitrogen, Carlsbad, Calif., USA) according to the manufacturer's instructions using 7.5 μg/mL final collagen concentration.

GIST882 cells [2] = test: MTT cell proliferation assay, GIST882; settings: 10 μmol/L, 96 hours (four day culture)
Method: (§1) GIST882 is a primary human GIST cell line with a homozygous missense mutation in KIT exon 13, encoding a […] mutant KIT oncoprotein (Tuveson, D. A. 2001). […] GIST48 has a primary exon 11 missense mutation and a secondary exon 17 missense mutation (Bauer, S. 2006). LPS141 is a liposarcoma cell line that is established from patient derived de-differentiated liposarcoma (Snyder, E. L. 2009). The cell lines were cultured in a RPMI 1640 medium (GIBCO, California USA) supplemented with 20% fetal bovine serum (FBS) and 2% penicillin/streptomycin. Four different PDE3-inhibitors were used to block the activity of PDE3 enzymes and two kinase-inhibitors to block the activity of KIT and PDGFRA. […] Effects on proliferation were analysed using xCELLigence System and the RTCA DP instrument (Acea Biosciences, San Diego, Calif., USA). […] Cell progression to apoptosis after anagrelide hydrochloride treatment was analysed in eight duplicate wells with a Click-iT TUNEL Alexa Fluor 488 Imaging Assay (Invitrogen, Carlsbad, Calif., USA) according to the manufacturer's instructions. Progression to apoptosis was measured after 48 hours and after 96 hours of drug treatments. […] At the end of the incubation, cell proliferation was analyzed from eight duplicate wells by adding 10 μL of the MTT reagent into each well and incubating at 37° C. for four hour. […]

[3] = test system: LPS141 liposarcoma cell line; test: MTT cell proliferation assay, LPS141; settings: 10 μmol/L, 96 hours (four day culture)
Method: as §1

GIST882 cells [4] = test: Click-iT TUNEL apoptosis assay, GIST882; settings: anagrelide hydrochloride 10 μmol/L, imatinib 0.5 μmol/L
Method: (§2) GIST882 is a primary human GIST cell line with a homozygous missense mutation in KIT exon 13, encoding a […] mutant KIT oncoprotein (Tuveson, D. A. 2001). […] GIST48 has a primary exon 11 missense mutation and a secondary exon 17 missense mutation (Bauer, S. 2006). LPS141 is a liposarcoma cell line that is established from patient derived de-differentiated liposarcoma (Snyder, E. L. 2009). The cell lines were cultured in a RPMI 1640 medium (GIBCO, California USA) supplemented with 20% fetal bovine serum (FBS) and 2% penicillin/streptomycin. Four different PDE3-inhibitors were used to block the activity of PDE3 enzymes and two kinase-inhibitors to block the activity of KIT and PDGFRA. Cilostazol, milrinone and amrinone were purchased from Sigma (St Louis, Mo., USA) and anagrelide hydrochloride was purchased from Tocris Bioscience (Bristol, UK). […] All other inhibitors were reconstituted in DMSO. […] Effects on proliferation were analysed using xCELLigence System and the RTCA DP instrument (Acea Biosciences, San Diego, Calif., USA). […] Cell progression to apoptosis after anagrelide hydrochloride treatment was analysed in eight duplicate wells with a Click-iT TUNEL Alexa Fluor 488 Imaging Assay (Invitrogen, Carlsbad, Calif., USA) according to the manufacturer's instructions. Progression to apoptosis was measured after 48 hours and after 96 hours of drug treatments.

GIST48 cells = test: Click-iT TUNEL apoptosis assay, GIST48; settings: for apoptotic GIST48 cells: anagrelide hydrochloride 10 μmol/L, imatinib 0.5 μmol/L
Method: as §2

In the case of `Nc1cc(-c2ccncc2)c[nH]c1=O` [amrinone], the “anti-proliferative effect on GIST cell cultures” value (“anti-proliferative effect” for short) [1] is reported as “some anti-proliferative effect”.

For `O=C1CN2Cc3c(ccc(Cl)c3Cl)N=C2N1` [anagrelide hydrochloride, 6,7-dichloro-1,5-dihydroimidazo[2,1-b]quinazolin-2(3H)-one], the “anti-proliferative effect” value [1] was “some anti-proliferative effect”, the “effect on GIST882 cell growth in comparison with DMSO” value (GIST882 cells [2]) was “the only PDE3 inhibitor that had an effect” and the “effect on LPS141 cell growth in comparison with DMSO” value [3] was “the only PDE3 inhibitor that had an effect”. For the same compound, the “apoptotic GIST882 cells” value (GIST882 cells [4]; after 48 hours) was 22%, the “apoptotic GIST882 cells” value (GIST882 cells [4]; after 96 hours) was 47% and the “apoptotic GIST48 cells” value (GIST48 cells; after 48 hours) was 0.6%. For the same compound, the “apoptotic GIST48 cells” value (GIST48 cells; after 96 hours) was 1% and the “DNA fragmentation in GIST48 cells” value (GIST48 cells; anagrelide hydrochloride treatment) was “only slight DNA fragmentation”.

In the case of `O=C1CCc2cc(OCCCCc3nnnn3C3CCCCC3)ccc2N1` [cilostazol], the “anti-proliferative effect” value [1] is reported as “did not influence cell proliferation”.

For `Cc1[nH]c(=O)c(C#N)cc1-c1ccncc1` [milrinone], the “anti-proliferative effect” value [1] was “did not influence cell proliferation”.
